Results published in patent US20220354108A1, “PRESERVATION METHODS USING TREHALOSE WITH OTHER CRYOPROTECTANTS BEING ABSENT FROM THE CRYOPRESERVATION PROTOCOL” (TISSUE TESTING TECHNOLOGIES LLC, priority 2021, published 2022).
Where two headings read alike, the source gives them in different places.

Assays:
Type in all cases: cell-based
[1] = system: bone marrow-derived human mesenchymal stem cells (hMSCs); settings: for hMSC viability compared with DMSO control groups: 0.2 M trehalose
Experimental: Experiments were performed using bone marrow-derived human mesenchymal stem cells (hMSCs) from various commercial sources Human Bone-Marrow Derived Mesenchymal Stem/Stromal Cells (hBM-MSCs) were isolated from normal healthy adult donors (purchased from a commercial source (such as Rooster-Bio) along with the appropriate growth media). Cells were grown according to the manufacturer's instructions).
Prior to the development of the methodology of the present disclosure, the inventors of the instant application previously assessed a nanotechnology for intracellular trehalose delivery developed by Professor Xiaoming He, University of Maryland (Zhang et al., Cold-Responsive Nanoparticle Enables Intracellular Delivery and Rapid Release of Trehalose for Organic-Solvent-Free Cryopreservation, Nano Lett. 2019, 19, 9051-9061; Rao et al., Nanoparticle-Mediated Intracellular Delivery Enables Cryopreservation of Human Adipose-Derived Stem Cells Using Trehalose as the Sole Cryoprotectant, ACS Appl Mater Interfaces, 2015, 7(8), 5017-5028), that they had shown promoted cryopreservation of adipose tissue derived hMSCs, for bone marrow-derived MSCs. Unfortunately, the trehalose nanotechnology failed during these studies, probably due to instability of the trehalose nanoparticles during storage and transport from the University of Maryland to Charleston, S.C. […] Encouraged by these unanticipated results, the range of exogenous trehalose employed was expanded to 0.2-0.8M and compared −1, −5 and −15° C./minute cooling rates.
In the preliminary experiments, the DMSO controls were clearly the best at the 1° C./minute cooling rate (65.3±2.7% of untreated controls), however, the best overall outcome was the 0.2M trehalose group at the −15° C./minute cooling rate (78.9±3.5% of untreated controls).

[2] = system: Pan T-cells; test: Pan T-cell metabolic activity after cryopreservation (resazurin dye); settings: −15° C./minute
Experimental: (§1) Experiments were performed to assess 0.2-0.8M concentrations of extracellular trehalose combined with several concentrations of 0-5% DMSO and compared with the positive control, Cryostor-5, that contains 5% DMSO.
(§2) Pan T-cells were grown and expanded. The T-cells were then harvested and counted. Approximately 10×10^6 cells were used for each sample. Cells were resuspended in the various combinations of DMSO and trehalose in 1 mL and allowed to equilibrate on ice for 20 minutes. Samples were cooled in a CRF at −15° C./minute to −80° C. then moved to liquid nitrogen vapor phase storage for approximately 10 days. After storage, samples were thawed rapidly in a 37° C. water bath, transferred to a 15 mL centrifuge tube and diluted with 10 mL culture medium. An aliquot was taken for cell counting. […] Cells were allowed to recover for 60 minutes in a 37° C. incubator before viability was measured using resazurin dye (300 μl). The cells were left for 3 hours at 37° C. before the plate was read using a fluorescent microplate reader at an excitation wavelength of 544 nm and an emission wavelength of 590 nm. […]
(§3) In FIGS. 3A and 3B, cell survival after cryopreservation at −15° C./minute using combinations of DMSO and trehalose. […] Cell counts, live and dead, (A) as well as metabolic activity (B) was measured. […]

[3] = system: Pan T-cells; test: Pan T-cell survival after cryopreservation, live and dead cell counts (trypan blue); settings: trehalose alone, no DMSO; −15° C./minute
Experimental: as §1, §2, §3

SMILES | hMSC viability after cryopreservation [1] | cell metabolic activity, difference from control Cryostor-5 ([2]; 0% DMSO with 0.2M trehalose, p>0.05) | cell metabolic activity, difference from control Cryostor-5 ([2]; 0% DMSO, all trehalose groups except 0.2M) | protection during cryopreservation compared with control Cryostor-5 [3] | hMSC viability compared with DMSO control groups ([1]; −5° C./minute cooling rate) | hMSC viability compared with DMSO control groups ([1]; −15° C./minute cooling rate) | MSC survival of cryopreservation ([1]; trehalose present only extracellularly (used as negative control))
C[S+](C)[O-] [DMSO, dimethyl sulfoxide, reference compound] | 65.3±2.7 % of untreated controls |  |  |  |  |  | 
OC[C@H]1O[C@H](O[C@H]2O[C@H](CO)[C@@H](O)[C@H](O)[C@H]2O)[C@H](O)[C@@H](O)[C@@H]1O [trehalose] | 78.9±3.5 % of untreated controls | significant difference | no statistically significant differences | adequate protection similar to the control | same or higher viability than the DMSO control groups | same or higher viability than the DMSO control groups | survived cryopreservation quite well
